{"source": "patent US20110176998A1", "about": "“IMAGING AND THERAPY OF VIRUS-ASSOCIATED TUMORS” (THE JOHNS HOPKINS UNIVERSITY, priority 2007, published 2011)", "key": {"Zta promoter": {"system": "Zta promoter", "format": "cell-based, Epstein-Barr virus", "conditions": "for Zta promoter luciferase activity / induction of BZLF1 promoter: AGS cells"}, "[1]": {"system": "recombinant EBV encoding GFP (BX-1) in AKATA-BX1 cells", "assay": "GFP whole virus assay in AKATA-BX1 cells", "conditions": "for GFP signal: AKATA-BX1 cells"}, "[2]": {"system": "CMV promoter driven GFP in Hela cells"}, "EBV(+) Akata cells": {"system": "EBV(+) Akata cells", "assay": "entry of EBV(+) Akata cells into the lytic cycle", "conditions": "20 nM, 48 hours"}, "BZLF1 protein (ZTA)": {"system": "BZLF1 protein (ZTA)", "assay": "Western blot / immunoblot for ZTA (BZLF1 protein) in EBV positive cell lines", "format": "cell-based, Epstein-Barr virus", "conditions": "for BZLF protein expression: SNU719, AKATA, Raji, LCL and Rael cells", "protocol": "To detect expression of the EBV-TK or EBV-ZTA, total cell protein was first extracted by treating cells with lysis buffer (0.05 M Tris, pH 7.6, 0.15 M NaCl, 1% triton-X 100, 2 mM EDTA) containing protease inhibitors for 10 minutes at 4° C. The following reagents were added to 1 mL of lysis buffer: 2 μL leupeptin (5 mg/mL), 1 μL 0.2 M Na3VO4, 1 μL NaF, 1 μL aprotinin (10 mg/ml), 1 μL, pepstatin (2 mM), and 10 μL PMSF (100 mM) for 10 minutes at 4° C. Following centrifugation, the supernatant was collected and stored at −80° C. Protein concentration was determined with the BCA Protein Assay Kit (Pierce, Rockford, Ill.) according to the manufacturer's instructions. A 10 μg aliquot of total cellular protein was fractionated on a 7.5% SDS-polyacrylamide gel. Proteins were transferred to PROTRAN nitrocellulose membrane (Schleicher & Schuell, Keene, N.H.). The membranes were blocked with 5% blotting grade non-fat dry milk (Bio-rad, Hercules, Calif.) in PBS with 0.1% TWEEN-20 (PBS-T) at 4° C. overnight. The membranes were then washed with PBS-T twice followed by incubation with 1/1,000-diluted rabbit anti-TK sera from a rabbit immunized with a synthetic EBV-TK peptide ([…]) or anti-ZTA monoclonal antibody (Argene, North Massapequa, N.Y.) at room temperature for 1 hour. After washing, the membranes were incubated with HRP-conjugated goat anti-rabbit IgG antibodies or HRP-conjugated goat anti-mouse IgG antibodies (Amersham Pharmacia Biotech, Piscataway, N.J.) at a 1/5,000 dilution in PBS-T at room temperature for 1 hour. The membranes were washed twice and proteins were detected with ECL Western Blotting Detection reagents (Amersham Pharmacia Biotech). The membranes were exposed to X-OMAT film (Kodak, Rochester, N.Y.) at room temperature.\nFor lytic induction studies, cells were seeded at 10^6/ml, and treated with test compounds for 48 hours. Control untreated cells were incubated in parallel.\nCells were washed with PBS twice. Total cellular protein was extracted with lysis buffer. Proteins were electrophoresed in polyacrylamide and then transferred onto a PROTRAN nitrocellulose membrane (Schleicher&Schuell, Keene, N.H.). Blots were probed with primary antibody (Ab) overnight at 4° C. HRP-conjugated secondary Ab was added after washing and detected by an enhanced chemiluminescence system (ECL) (Amersham). The following antibodies were used: anti-ZTA (Argene), anti-f3-actin (Sigma), anti-mouse (Sigma)."}, "EBV-TK": {"system": "EBV-TK", "assay": "immunoblot for EBV-TK expression", "format": "cell-based, Epstein-Barr virus", "conditions": "Rael cells; immunoblot", "protocol": "To detect expression of the EBV-TK or EBV-ZTA, total cell protein was first extracted by treating cells with lysis buffer (0.05 M Tris, pH 7.6, 0.15 M NaCl, 1% triton-X 100, 2 mM EDTA) containing protease inhibitors for 10 minutes at 4° C. The following reagents were added to 1 mL of lysis buffer: 2 μL leupeptin (5 mg/mL), 1 μL 0.2 M Na3VO4, 1 μL NaF, 1 μL aprotinin (10 mg/ml), 1 μL, pepstatin (2 mM), and 10 μL PMSF (100 mM) for 10 minutes at 4° C. Following centrifugation, the supernatant was collected and stored at −80° C. Protein concentration was determined with the BCA Protein Assay Kit (Pierce, Rockford, Ill.) according to the manufacturer's instructions. A 10 μg aliquot of total cellular protein was fractionated on a 7.5% SDS-polyacrylamide gel. Proteins were transferred to PROTRAN nitrocellulose membrane (Schleicher & Schuell, Keene, N.H.). The membranes were blocked with 5% blotting grade non-fat dry milk (Bio-rad, Hercules, Calif.) in PBS with 0.1% TWEEN-20 (PBS-T) at 4° C. overnight. […] The membranes were washed twice and proteins were detected with ECL Western Blotting Detection reagents (Amersham Pharmacia Biotech). […]"}, "[3]": {"system": "EBV viral DNA copy number", "assay": "real-time PCR for EBV viral DNA copy number (viral replication)", "format": "cell-based, Epstein-Barr virus", "conditions": "for lytic protein expression or viral replication: B cells or gastric epithelial cells (SNU 719)", "protocol": "Genomic DNA from treated cells were extracted with the QIAamp DNA mini kit (Qiagen, CA) according to the manufacturer's instructions. PCRs were set up in a volume of 50 μL with a TaqMan PCR core reagent kit (Perkin-Elmer Corp., Branchburg, N.J.). Fluorescent probes were custom synthesized by Perkin-Elmer Applied Biosystems. PCR primers were synthesized by Gibco BRL (Frederick, Md.). Each reaction contained 5 μL of 10× buffer A (4 mM MgCl2), amplification primers (300 nM), fluorescent probe (25 nM), dATP, dCTP, and dGTP (200 μM each), dUTP (400 uM), 1.25 U of AmpliTaq Gold, and 0.5 U of AmpErase uracil N-glycosylase. Extracted genomic DNA was used for amplification. DNA amplification was carried out in a 96-well reaction plate in a Perkin-Elmer Applied Biosystems 7700 sequence detector. Each sample was analyzed in duplicate, and multiple negative water blanks were included in each analysis. A calibration curve was run in parallel and in duplicate with each analysis, with DNA extracted from the EBV-positive cell line Namalwa as a standard.\nThe EBV genome was quantified by real-time PCR with the ICycler system (Biorad, Hercules, Calif.). Template DNA was extracted with a mini blood DNA Kit (Qiagen, Valencia, Calif.). […]. A calibration curve was run in parallel and in duplicate with each analysis, using DNA extracted from the diploid EBV-positive cell line Namalwa containing two integrated viral genomes per cell as a standard. Amplification data were collected with an MyiQ single color real-time PCR Detector (Biorad) and analyzed with the MyiQ software developed by Biorad."}, "[4]": {"system": "EBV(+) Burkitt's lymphoma (Rael)", "assay": "tumor growth, EBV(+) Burkitt's lymphoma (Rael) xenografts", "format": "in vivo, SCID mice", "conditions": "bortezomib without [131I]FIAU", "protocol": "Therefore, an evaluation of a therapeutic isotope was carried out. As described above, SCID mice engrafted with EBV Burkitt's lymphoma xenografts received either buffer or bortezomib followed the next day by treatment with [^131I]FIAU or no treatment. […] Thus, bortezomib allowed targeting of [^131I]FIAU with therapeutic effect. Other proteasome inhibitors are also likely to be active. Several are in clinical trial.\nBiostatistics. Linear regression and curve fitting were undertaken carried using GraphPad Prism software version 5.00 for Windows, GraphPad Software, San Diego Calif. USA, www.graphpad.com."}, "[5]": {"system": "EBV-TK functional activity in Burkitt's lymphoma cell lines", "assay": "in vitro [14C]FIAU cell uptake after bortezomib", "format": "cell-based, Epstein-Barr virus", "protocol": "For in vitro [^14C]FIAU uptake studies, cells were seeded at 5×10^5 cells/mL and incubated with 10 nM bortezomib at 37° C. for 6-12 hrs. They were washed and then incubated with 0.04 μCi/mL [^14C]FIAU at 37° C. for 2, 4, 8, 24, 48, 72 hours. Cells were pelleted by centrifugation and washed with unlabeled FIAU. Radioactivity of the isolated cells and pooled medium with washes were then counted separately by scintillation counting with a Beckman Coulter LS5000TA scintillation counter (Fullerton, Calif.). Total cellular protein was extracted by incubating in lysis buffer (0.05 M Tris, pH 7.6, 0.15 M NaCl, 1% triton-X 100, 2 mM EDTA) and cell debris were removed by centrifugation. The supernatant was collected and the protein concentration was determined with the BCA protein assay kit (Pierce, Rockford, Ill.) according to the manufacturer's instructions. Cell uptake was expressed as the accumulation ratio, that is, the counts per minute per gram (cpm/g) of cells divided by the cpm/g (mL) of medium."}, "[6]": {"conditions": "administered to patients for imaging; cited from earlier work"}}, "note": "“Also recorded” adds a separate entry of the source. Like-named read-outs stand apart in the source and are kept apart here."}
{"compound": "Nc1ncn([C@H]2C[C@H](O)[C@@H](CO)O2)c(=O)n1", "note": "[5′-azadeoxycytidine, 5-Aza-2′-deoxycytidine]", "values": [{"measurement": "Zta promoter luciferase activity", "setting": "Zta promoter", "value": "did not activate; also recorded: not activated"}, {"measurement": "GFP signal", "setting": "[1]", "value": "induced"}, {"measurement": "GFP signal in control cell line", "setting": "[2]", "value": "not activated"}]}
{"compound": "CC(C)C[C@H](NC(=O)[C@H](Cc1ccccc1)NC(=O)c1cnccn1)B(O)O", "note": "[Bortezomib]", "values": [{"measurement": "Zta promoter luciferase activity", "setting": "Zta promoter", "value": "increases in a bortezomib dose-dependent manner"}, {"measurement": "induction of BZLF1 promoter", "setting": "Zta promoter; 10 nM", "value": "induced"}, {"measurement": "known lytic inducer re-identified / hit in epithelial promoter reporter assay", "setting": "Zta promoter; library screen at 10 uM", "value": "most prominent hit"}, {"measurement": "EC50 for inducing lytic infection", "setting": "Zta promoter; luciferase assay", "value": "nanomolar scale"}, {"measurement": "cells entered the lytic cycle", "setting": "EBV(+) Akata cells", "value": 67, "unit": "%"}, {"measurement": "GFP signal", "setting": "[1]", "value": "dose dependent"}, {"measurement": "GFP signal", "setting": "[1]; 10 nM", "value": "induced GFP signal"}, {"measurement": "EC50 for inducing lytic infection", "setting": "[1]; GFP assay", "value": "nanomolar scale"}, {"measurement": "known lytic inducer re-identified / hit in lymphoma cell line/whole virus assay", "setting": "[1]; library screen at 10 uM", "value": "most prominent hit"}, {"measurement": "ZTA expression", "setting": "BZLF1 protein (ZTA); Rael cells", "value": "induced"}, {"measurement": "EBV-TK expression", "setting": "EBV-TK", "value": "induced"}, {"measurement": "increase of EBV viral DNA copy number", "setting": "[3]; Rael cells, 20 nM for 8 hours, DNA collected after 48 hours", "value": 20, "unit": "fold"}, {"measurement": "viral copy number", "setting": "[3]; real time DNA PCR, Rael", "value": "increased"}, {"measurement": "tumor growth", "setting": "[4]", "value": "slowed tumor growth"}]}
{"compound": "CC(C(=O)O)c1ccc(N2Cc3ccccc3C2=O)cc1", "note": "(stereo not shown) [Indoprofen]", "values": [{"measurement": "induction of BZLF1 promoter", "setting": "Zta promoter; 10 μM", "value": "can induce"}, {"measurement": "ZTA expression", "setting": "BZLF1 protein (ZTA); SNU719 cells, high dose", "value": "induced"}, {"measurement": "EBV viral replication", "setting": "[3]; SNU719 cells", "value": "not viral replication; also recorded: did not induce"}]}
{"compound": "Cc1oncc1C(=O)Nc1ccc(C(F)(F)F)cc1", "note": "[Leflunomide, N-(4′-trifluoromethylphenyl)-5-methylisoxazole-4-carboxamide]", "values": [{"measurement": "BZLF protein expression", "setting": "BZLF1 protein (ZTA)", "value": "did not induce"}, {"measurement": "lytic protein expression or viral replication", "setting": "[3]", "value": "don't induce"}]}
{"compound": "CC(C)[C@H](CO)Nc1nc(Nc2cccc(Cl)c2)c2ncn(C(C)C)c2n1", "note": "[Purvalanol A]", "values": [{"measurement": "inhibition of GFP signal after lytic induction", "setting": "[1]; AKATA-BX1 cells induced with anti-IgG", "value": "specifically inhibited"}, {"measurement": "inhibition of EBV immediate early gene ZTA expression", "setting": "BZLF1 protein (ZTA); AKATA-BX1, anti-IgG induction", "value": "inhibited"}]}
{"compound": "CCCCCCCCCCCCCC(=O)O[C@@H]1[C@@H](C)[C@@]2(O)[C@@H](C=C(CO)C[C@]3(O)C(=O)C(C)=C[C@@H]23)[C@@H]2C(C)(C)[C@]12OC(C)=O", "note": "[TPA, phorbol 12-tetradecanoate 13-acetate]", "values": [{"measurement": "Zta promoter luciferase activity", "setting": "Zta promoter", "value": "activated"}, {"measurement": "GFP signal in control cell line", "setting": "[2]", "value": "not activated"}]}
{"compound": "COc1ccc(C=CC(=O)Nc2ccccc2C(=O)O)cc1OC", "note": "[Tranilast, N-(3,4-dimethoxycinnamoyl)anthranilic acid]", "values": [{"measurement": "BZLF protein expression", "setting": "BZLF1 protein (ZTA)", "value": "did not induce"}, {"measurement": "lytic protein expression or viral replication", "setting": "[3]", "value": "don't induce"}]}
{"compound": "O=c1[nH][14c](=O)n([C@@H]2O[C@H](CO)[C@@H](O)[C@@H]2F)cc1I", "note": "[[^14C]FIAU, [2-^14C]2′-Fluoro-2′-deoxy-β-D-5-iodouracil-arabinofuranoside]", "values": [{"measurement": "accumulation of [14C]FIAU", "setting": "[5]; EBV(+) Akata and EBV(+) Rael cells following treatment with bortezomib", "value": "increased"}, {"measurement": "accumulation of [14C]FIAU", "setting": "[5]; EBV(−) Akata cells following treatment with bortezomib", "value": "not"}]}
{"compound": "O=c1[nH]c(=O)n([C@@H]2O[C@H](CO)[C@@H](O)[C@@H]2F)cc1[125I]", "note": "[[^124I]FIAU, 2′-fluoro-2′deoxy-1-beta-D-arabinofuranosyl-5-iodo-uracil]", "values": [{"measurement": "effect on hepatic function", "setting": "[6]", "value": "without any adverse effect on hepatic function"}]}
